According to ChEMBL document CHEMBL1138794, “Influence of the linker in bispyridium compounds on the inhibition of human choline kinase” (J Med Chem, 2004):

How the values were obtained:
HT-29 = test: Antiproliferative activity was determined using HT-29 human colon cancer cell line; assay type: functional, cell-based
Choline kinase alpha = Choline kinase alpha (Homo sapiens, UniProt P35790); test: Inhibitory activity against human choline kinase enzyme
Chain of Choline kinase alpha (P35790 whole entry): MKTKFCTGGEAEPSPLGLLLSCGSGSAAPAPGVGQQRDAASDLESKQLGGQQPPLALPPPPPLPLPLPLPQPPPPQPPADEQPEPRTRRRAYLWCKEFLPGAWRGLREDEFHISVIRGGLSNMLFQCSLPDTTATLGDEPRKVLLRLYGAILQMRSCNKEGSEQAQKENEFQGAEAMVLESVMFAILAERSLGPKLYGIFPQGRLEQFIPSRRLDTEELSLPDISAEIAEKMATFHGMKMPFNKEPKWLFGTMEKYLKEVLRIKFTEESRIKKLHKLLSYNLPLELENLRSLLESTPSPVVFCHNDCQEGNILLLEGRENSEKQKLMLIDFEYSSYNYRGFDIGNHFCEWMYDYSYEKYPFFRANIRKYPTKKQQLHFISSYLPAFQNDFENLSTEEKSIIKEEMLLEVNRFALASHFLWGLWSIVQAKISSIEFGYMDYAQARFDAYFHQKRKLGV

Row | Structure (SMILES) | IC50 (HT-29) [µM] | IC50 (Choline kinase alpha) [µM]
1 | c1cc(C[n+]2ccc(N3CCCC3)cc2)cc(C[n+]2ccc(N3CCCC3)cc2)c1 | 50 | 84.2
2 | CN(c1ccc(Cl)cc1)c1cc[n+](C[C@H]2C[C@@H]2C[n+]2ccc(N(C)c3ccc(Cl)cc3)cc2)cc1 | 24.3 | 48.2
3 | c1c[n+](C[C@H]2C[C@@H]2C[n+]2ccc(N3CCCCC3)cc2)ccc1N1CCCCC1 | 99 | 98
4 | c1cc(C[n+]2ccc(N3CCCC3)cc2)ccc1C[n+]1ccc(N2CCCC2)cc1 | > 100 | 24
5 | c1cc(C[n+]2ccc(N3CCCCC3)cc2)ccc1C[n+]1ccc(N2CCCCC2)cc1 | > 100 | 37.7
6 | CN(c1ccccc1)c1cc[n+](C[C@H]2C[C@@H]2C[n+]2ccc(N(C)c3ccccc3)cc2)cc1 | > 100 | > 100
7 | CN(c1cc[n+](C[C@H]2C[C@@H]2C[n+]2ccc(N(C)c3cc(Cl)cc(Cl)c3)cc2)cc1)c1cc(Cl)cc(Cl)c1 | 7.5 | > 100
8 | c1cc(C[n+]2ccc(N3CCCCC3)cc2)cc(C[n+]2ccc(N3CCCCC3)cc2)c1 | 43 | 52.8
9 | c1c[n+](C[C@H]2C[C@@H]2C[n+]2ccc(N3CCCC3)cc2)ccc1N1CCCC1 | > 100 | > 100

Stronger by IC50 (HT-29), values ahead:

Row | IC50 (HT-29) [µM] | IC50 (Choline kinase alpha) [µM] | Structure (SMILES)
10 | 2.9 | 9.7 | CN(c1cc[n+](Cc2ccc(C[n+]3ccc(N(C)c4cc(Cl)cc(Cl)c4)cc3)cc2)cc1)c1cc(Cl)cc(Cl)c1
11 | 4 | 8.4 | CN(c1cc[n+](Cc2cccc(C[n+]3ccc(N(C)c4cc(Cl)cc(Cl)c4)cc3)c2)cc1)c1cc(Cl)cc(Cl)c1
12 | 4.2 | 8.8 | c1cc(-c2ccc(C[n+]3ccc(N4CCCCC4)cc3)cc2)ccc1C[n+]1ccc(N2CCCCC2)cc1
13 | 2.2 | 0.4 | CN(c1ccccc1)c1cc[n+](Cc2cccc(-c3cccc(C[n+]4ccc(N(C)c5ccccc5)cc4)c3)c2)cc1
14 | 0.49 | 1.8 | CN(c1ccc(Cl)cc1)c1cc[n+](Cc2ccc(-c3ccc(C[n+]4ccc(N(C)c5ccc(Cl)cc5)cc4)cc3)cc2)cc1
15 | 5.1 | 37.5 | CN(c1ccccc1)c1cc[n+](Cc2cccc(C[n+]3ccc(N(C)c4ccccc4)cc3)c2)cc1
16 | 6.81 | 15 | CN(c1ccccc1)c1cc[n+](Cc2ccc(C[n+]3ccc(N(C)c4ccccc4)cc3)cc2)cc1
17 | 3.3 | 7.2 | CN(c1ccc(Cl)cc1)c1cc[n+](Cc2cccc(C[n+]3ccc(N(C)c4ccc(Cl)cc4)cc3)c2)cc1
18 | 6.1 | 11.1 | c1cc(-c2ccc(C[n+]3ccc(N4CCCC4)cc3)cc2)ccc1C[n+]1ccc(N2CCCC2)cc1
19 | 2 | 4.3 | CN(c1ccccc1)c1cc[n+](Cc2ccc(-c3ccc(C[n+]4ccc(N(C)c5ccccc5)cc4)cc3)cc2)cc1
20 | 1.6 |  | c1cc(C[n+]2ccc(N3CCCCC3)cc2)cc(-c2cccc(C[n+]3ccc(N4CCCCC4)cc3)c2)c1
21 | 3.5 | 2.9 | CN(c1ccc(Cl)cc1)c1cc[n+](Cc2ccc(C[n+]3ccc(N(C)c4ccc(Cl)cc4)cc3)cc2)cc1
22 | 1.8 | 2.6 | CN(c1cc[n+](Cc2cccc(-c3cccc(C[n+]4ccc(N(C)c5cc(Cl)cc(Cl)c5)cc4)c3)c2)cc1)c1cc(Cl)cc(Cl)c1
